Results published in patent US20200061212A1, “SOLID ORAL COMPOSITION CONTAINING DYES” (COSMO TECHNOLOGIES LTD., priority 2016, published 2020).

How the values were obtained:
[1] = system: CYP 1A2
[2] = target: T1, P-gp (Homo sapiens, UniProt P08183); assay: in vitro transporter substrate study; assay type: in vitro ADME; details: in vitro studies
[3] = system: subjects undergoing screening or surveillance colonoscopy; assay: Phase III placebo-controlled trial: Adenoma or Carcinoma detection rate and false positive rate at HD white light colonoscopy; assay type: in vivo, human; details: for ADR: Difference in Proportions of Methylene Low Dose vs. Placebo: 100 mg; for ADR: Difference in Proportions of Methylene Full Dose vs. Methylene Blue Low Dose: 200 mg vs 100 mg; for False Positive Rate: subjects with excisions and without any histologically proven Adenoma or Carcinoma, %: % of subjects with excision
Excerpt: The detection rate was defined as the proportion of patients with at least one histologically proven Adenoma or Carcinoma.
In other words, in the study the standard of care (white light endoscopy) and the chromoendoscopy by oral administration of the MB tablets were compared. In the acquisition and recording of the colonoscopies, the latest and more technologically advanced, high definition (HD) endoscopes were used. Thus, the study allowed the direct comparison of the effect of the MB tablets on the adenoma or carcinoma detection rate to the current gold standard colonoscopy, i.e. the high definition (HD) white light colonoscopy. For this reason, in the context of the present example, the terms “placebo”, “white light high definition endoscopy” (WLHD) and “white light endoscopy” can be used interchangeably, and definitively indicate the current standard of care for the endoscopic examination of the colon. Due to the unavoidable impossibility to obtain double-blinding for the clinical study, since the endoscopist performing the colonoscopy was able to see if the colon was blue colored or unstained, an additional, underpowered, masking group was introduced. […] These patients had the colon stained in blue, but were not taken into account in the calculation of the study parameters. In this way, while performing the colonoscopy, the endoscopist was not aware if a patient belonged to the group of the full dose (whose patients were part of the statistical calculation) or to the “masking” group (whose patients received a lower dose of the composition and were not part of the statistical analysis).
Subjects aged between 50 and 75 years undergoing full colonoscopy for screening or surveillance of colorectal cancer were recruited.
Diet: In preparation for the colonoscopy patients adopted a low residue diet for three days prior to the colonoscopy. On the third day of the low residue diet patients must fast for at least 3 hours before starting intake of the bowel prep and study drug.
Bowel cleansing preparation: all subjects received a full dose regimen of 4 liters PEG-based bowel cleansing preparation starting in the late afternoon (after 6 pm) before the colonoscopy day. The subjects drank at least 250 mL of solution every 15 min, so that the intake of the cleansing preparation, and study drug were completed in 4 hours.
Dose regimen: The subjects were randomized 2:2:1 into three groups.
All the patients participating to the study, regardless of whether they belonged to Group one, Group two or Group three, received a timetable detailing the volumes of bowel cleansing preparation to be consumed, and the times to be respected:
The subjects had to drink about 250 mL of bowel cleansing preparation every 15 minutes, equivalent to 1 liter of bowel cleansing preparation every hour. The timeframe between an oral administration of tablets and the following one had to be 1 hour.
Adenoma was defined as a histologically proven Vienna Grade 3 to 4.2 or a histologically proven traditional serrated adenoma (TSA), or a histologically proven sessile serrated adenoma (SSA). Histologically proven Carcinoma was defined as Vienna Grade 4.3 to 5b.
Day of colonoscopy 02: patients returned to the clinic for the colonoscopy. The colonoscopy was performed using high definition (HD) colonoscope. Narrow-Band-Imaging (NBI) and all other electronic chromoendoscopy and contrast enhancement techniques, as well as zoom endoscopy or magnification were not permitted. The endoscopist performed the full colonoscopy and recorded and removed all the detected adenoma and/or carcinoma. The endoscopist recorded the morphology and size and classified the found polyps, adenomas and carcinomas, and recorded the pit pattern according to the Paris and Kudo's classification and following the endoscopy charter.

[4] = target: T1, P-gp; assay: in vitro transporter inhibition study; assay type: in vitro ADME; details: in vitro studies
[5] = system: CYP 2B6
[6] = low dose 100 mg, Per Protocol N=225
[7] = patients with number of excisions 0-1, FAS
[8] = patients with number of excisions 0-1, PP
[9] = patients with number of excisions ≤3, FAS
[10] = patients with number of excisions ≤3, PP

T1 sequence (P08183 whole entry): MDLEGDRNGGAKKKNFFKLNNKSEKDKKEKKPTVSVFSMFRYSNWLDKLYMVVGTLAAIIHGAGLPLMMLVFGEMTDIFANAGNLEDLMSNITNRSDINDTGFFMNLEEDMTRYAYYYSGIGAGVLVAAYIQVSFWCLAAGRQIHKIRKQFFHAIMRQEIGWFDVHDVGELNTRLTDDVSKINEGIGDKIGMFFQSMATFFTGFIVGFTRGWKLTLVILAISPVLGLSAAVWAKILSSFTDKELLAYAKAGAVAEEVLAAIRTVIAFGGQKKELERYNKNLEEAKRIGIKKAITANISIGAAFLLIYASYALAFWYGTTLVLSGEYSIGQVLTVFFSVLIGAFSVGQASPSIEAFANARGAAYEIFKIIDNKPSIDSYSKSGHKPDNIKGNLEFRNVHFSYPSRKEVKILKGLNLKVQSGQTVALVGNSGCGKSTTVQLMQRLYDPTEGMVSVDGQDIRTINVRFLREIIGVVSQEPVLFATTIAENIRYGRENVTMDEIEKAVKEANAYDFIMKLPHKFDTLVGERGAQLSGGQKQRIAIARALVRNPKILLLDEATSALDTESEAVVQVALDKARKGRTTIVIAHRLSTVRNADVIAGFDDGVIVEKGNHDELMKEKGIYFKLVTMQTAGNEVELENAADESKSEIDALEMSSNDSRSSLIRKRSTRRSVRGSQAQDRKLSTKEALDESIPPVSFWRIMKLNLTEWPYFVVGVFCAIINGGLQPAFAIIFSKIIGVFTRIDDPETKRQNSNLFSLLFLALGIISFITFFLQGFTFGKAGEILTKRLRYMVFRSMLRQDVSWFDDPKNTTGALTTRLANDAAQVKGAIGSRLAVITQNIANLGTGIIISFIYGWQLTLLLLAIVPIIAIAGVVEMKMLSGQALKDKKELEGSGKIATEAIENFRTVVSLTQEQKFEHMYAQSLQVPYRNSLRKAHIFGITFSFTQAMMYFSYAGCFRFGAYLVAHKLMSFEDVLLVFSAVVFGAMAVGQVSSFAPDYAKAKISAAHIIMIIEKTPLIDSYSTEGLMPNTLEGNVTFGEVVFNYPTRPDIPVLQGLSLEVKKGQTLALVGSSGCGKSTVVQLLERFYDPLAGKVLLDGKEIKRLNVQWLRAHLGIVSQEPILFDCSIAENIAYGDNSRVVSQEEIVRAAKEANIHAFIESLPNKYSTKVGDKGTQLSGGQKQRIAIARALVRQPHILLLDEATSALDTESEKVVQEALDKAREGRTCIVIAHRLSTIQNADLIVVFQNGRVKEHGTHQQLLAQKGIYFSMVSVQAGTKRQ

CN(C)c1ccc2nc3ccc(=[N+](C)C)cc-3sc2c1 [Methylene blue, Methylthioninium Chloride (Methylene Blue)]
induction of CYP isozyme 1A2 [1]: induces
substrate of the membrane transport protein P-gp [2]: possible substrate
ADR: Difference in Proportions of Methylene Low Dose vs. Placebo ([3]; FAS): 3.64
ADR: Difference in Proportions of Methylene Low Dose vs. Placebo ([3]; Per Protocol): 5.86
ADR: Difference in Proportions of Methylene Full Dose vs. Methylene Blue Low Dose ([3]; FAS): 4.84
ADR: Difference in Proportions of Methylene Full Dose vs. Methylene Blue Low Dose ([3]; Per Protocol): 4.46
ADR: Difference in Proportions of Methylene Blue Full Dose vs. Placebo ([3]; 200 mg, FAS): 8.48
Absolute difference in ADR between methylene blue full dose and placebo ([3]; 200 mg, FAS): 8.48%
Percent decrease in FPR for methylene full dose vs placebo ([3]; 200 mg, FAS): 21.6%
Percent increase in ADR for methylene full dose vs placebo ([3]; 200 mg, FAS): 17.7%
Percent decrease in FPR for methylene full dose vs placebo ([3]; 200 mg, PP): 24.8%
ADR: Difference in Proportions of Methylene Blue Full Dose vs. Placebo ([3]; 200 mg, Per Protocol): 10.32
Absolute difference in ADR between methylene blue full dose and placebo ([3]; 200 mg, Per Protocol): 10.32%
Percent increase in ADR for methylene blue full dose vs placebo ([3]; 200 mg, Per Protocol): 21.5%
Absolute difference in proportion of subjects between methylene blue full dose and placebo, Table 14 (non-polypoid lesions) ([3]; FAS): 8.83%
Absolute difference in proportion of subjects with diminutive adenomas between methylene blue full dose and placebo ([3]; FAS): 6.21%
Difference in False Positive Rates of Methylene Blue Full Dose vs. Methylene Blue Low Dose ([3]; FAS): −2.88
Difference in False Positive Rates of Methylene Blue Full Dose vs. Placebo ([3]; FAS): −6.44
Difference in False Positive Rates of Methylene Blue Low Dose vs. Placebo ([3]; FAS): −3.56
Percent increase in proportion of subjects for methylene blue full dose vs placebo, Table 14 (non-polypoid lesions) ([3]; FAS): 25.2%
Percent increase in proportion of subjects with diminutive adenomas for methylene blue full dose vs placebo ([3]; FAS): 20.1%
ADR, % ([3]; Number of excisions 0-1, low dose 100 mg, FAS): 20.83%
ADR, % ([3]; Number of excisions 4-6, full dose 200 mg, FAS): (85.06) %
ADR, % ([3]; Number of excisions 4-6, low dose 100 mg, FAS): 87.80%
ADR, % ([3]; Number of excisions >6, full dose 200 mg, FAS): (97.22) %
ADR, % ([3]; Number of excisions >6, low dose 100 mg, FAS): 100.00%
ADR, % ([3]; Number of excisions ≤3, low dose 100 mg, FAS): 38.12%
Difference in False Positive Rates of Methylene Blue Full Dose vs. Methylene Blue Low Dose ([3]; Per Protocol): −3.03
Difference in False Positive Rates of Methylene Blue Full Dose vs. Placebo ([3]; Per Protocol): −7.51
Difference in False Positive Rates of Methylene Blue Low Dose vs. Placebo ([3]; Per Protocol): −4.49
Absolute difference in proportion of subjects with a histologically proven adenoma between methylene blue full dose and placebo ([3]; excluding carcinoma, FAS): 9.33%
Percent increase in proportion of subjects with a histologically proven adenoma for methylene blue full dose vs placebo ([3]; excluding carcinoma, FAS): 20.3%
Percentage of subjects with a histologically proven adenoma (excluding carcinoma) ([3]; full dose 200 mg, FAS N=485): 55.26%
Percentage of subjects with diminutive adenomas ([3]; full dose 200 mg, FAS N=485): 37.11%
Percentage of subjects with non-polypoid lesions ([3]; full dose 200 mg, FAS N=485): 43.92%
Subjects with excision, % ([3]; full dose 200 mg, FAS N=485): (73.40) %
Total number of subjects with a histologically proven adenoma (excluding carcinoma) ([3]; full dose 200 mg, FAS N=485): 268
Total number of subjects with diminutive adenomas ([3]; full dose 200 mg, FAS N=485): 180
Total number of subjects with non-polypoid lesions ([3]; full dose 200 mg, FAS N=485): 213
ADR in patients with number of excisions 0-1 ([3]; full dose 200 mg, PP): 25.32%
ADR in patients with number of excisions ≤3 ([3]; full dose 200 mg, PP): 68.24%
Subjects with excision, % ([3]; full dose 200 mg, Per Protocol N=455): (75.38) %
Subjects with at least one histologically proven Adenoma or Carcinoma (ADR), % ([3]; low dose 100 mg (MB tablets of Example 6), FAS N=241): 51.45%
Subjects with excision, % ([3]; low dose 100 mg, FAS N=241): 69.71%
False Positive Rate: subjects with excisions and without any histologically proven Adenoma or Carcinoma, % ([3]; low dose 100 mg, FAS): 26.19%
Subjects with at least one histologically proven Adenoma or Carcinoma (ADR), % [3, 6]: 53.78%
Subjects with excision, % [3, 6]: 72.44%
False Positive Rate: subjects with excisions and without any histologically proven Adenoma or Carcinoma, % ([3]; low dose 100 mg, Per Protocol): 25.77%
Absolute difference in ADR between methylene blue full dose and placebo [3, 7]: 7.24%
Percent increase in ADR for methylene full dose vs placebo [3, 7]: 38.2%
Absolute difference in ADR between methylene blue full dose and placebo [3, 8]: 9.15%
Percent increase in ADR for methylene full dose vs placebo [3, 8]: 45.4%
Absolute difference in ADR between methylene blue full dose and placebo [3, 9]: 9.40%
Percent increase in ADR for methylene full dose vs placebo [3, 9]: 26.2%
Absolute difference in ADR between methylene blue full dose and placebo [3, 10]: 11.47%
Percent increase in ADR for methylene full dose vs placebo [3, 10]: 40.8%
inhibition of P-gp [4]: weak inhibitor
induction of CYP isozyme 2B6 [5]: induces
